We go through ten molecules from US10494384B2, “Urea peptoid boric acid compound, pharmaceutical composition thereof, preparation method therefor, and uses thereof” (Peking University, priority 2015, dated 2019).

In test [1] the target is T1, 20S proteasome extracted from rat liver (T-L) (Rattus norvegicus, UniProt P40112+Q9JHW0).
T1 construct: 20S proteasome extracted from rat liver; from tissue; host or cells: rat liver
Kind of test: inhibition of 20S proteasome, T-L activity (fluorescent peptide). In kind it is biochemical. To be noted: rat liver 20S proteasome, 37° C., 1 h, read-out: inhibition rates (%) T-L. The protocol: (§1) 1 μg of 20S proteasome extracted from rat liver was incubated with a 100 μL solution containing various concentrations of the present compounds, 50 μM fluorescent peptides and 20 mM Tris-HCl at 37° C. for 1 h, respectively. […] 0.1% DMSO was used as a solvent control. Compared with the fluorescence of solvent control, an inhibition rate or IC50 value was calculated.

The target in test [2] is T2, 20S proteasome extracted from rat liver (PGPH) (Rattus norvegicus, UniProt P28073+Q9JHW0).
T2 construct: 20S proteasome extracted from rat liver; from tissue; host or cells: rat liver
Kind of test: inhibition of 20S proteasome, PGPH activity (fluorescent peptide). The class given is biochemical. To be noted: rat liver 20S proteasome, 37° C., 1 h, read-out: inhibition rates (%) PGPH. Here is the method: as §1

The subject of the next test is MCF-7, breast cancer. Kind of test: preliminary anti-tumor screening in vitro, SRB method. In kind it is cell-based. The settings on record: Homo sapiens, read-out: inhibition rates (%) MCF-7; for inhibition at 0.1 µM: MCF7, 0.1 μM; for inhibition at 1 µM: MCF7, 1 μM; for inhibition at 10 µM: MCF7, 10 μM. The protocol: (§2) The test methods used in this test example are routine methods for anti-tumor activities test in pharmaceutical area, for example, referring to the following reference: (J. Immunol Method, 1983, 65, 55).
(§3) Test models: A: MTT method (Hela, human cervical carcinoma); B: SRB method (BGC-823, […]); C: SRB method (MCF-7, breast cancer); D: SRB method (A549, human lung cancer); E: SRB method (PC3M1E8, prostate cancer).
(§4) Inhibition rates of the compounds were measured under concentrations of 0.1 μM, 1 μM or 10 μM.

Another test concerns BGC-823, liver cancer. The test is described as above. The class given is cell-based. To be noted: Homo sapiens, read-out: inhibition rates (%) BGC-823. Here is the method:
as §2, §3, §4

The next test concerns A549, human lung cancer. The description is as above. The class given is cell-based. To be noted: read-out: inhibition rates (%) A549. The protocol:
as §2, §3, §4

Test [3] concerns the target T3, 20S proteasome extracted from rat liver (CT-L) (Rattus norvegicus, UniProt P18421+P28075).
T3 construct: 20S proteasome extracted from rat liver; from tissue; host or cells: rat liver
The test is described as follows: inhibition of 20S proteasome, CT-L activity (fluorescent peptide). In kind it is biochemical. The settings on record: rat liver 20S proteasome, 37° C., 1 h, read-out: inhibition rates (%) CT-L. Here is the method: as §1

In test [4] the test system is Hela, human cervical carcinoma. The test is described as follows: preliminary anti-tumor screening in vitro, MTT method. The class given is cell-based. The settings on record: read-out: inhibition rates (%) Hela. Here is the method:
as §2, §3, §4
In general terms: Tetrazolium dyes change colour on reduction, which living cells bring about.

Test [5] deals with MGC803 stomach cancer cells. The test is described as follows: anti-tumor activity in vitro (IC50), MTT. The class given is cell-based. To be noted: Homo sapiens, MGC-803; MGC80-3, MTT, 72 h, value ± spread; read-out: IC50 (μM), growth of stomach cancer cells (MGC80-3). Here is the method:
Cancer cells were cultured in vitro. When cell growth reached logarithmic phase, the cells were collected and centrifuged at 1000 rpm for 5 min, before the supernate was removed and the cells were suspended in a moderate amount of medium, and then the concentration of cell was adjusted to 3.5×10^4/mL. The cell suspension was added into a 96-well plate with 100 μL per well and cultured in a cell incubator (37° C., 5% CO2) for 24 h. Then test drugs of different end concentrations were added, and the negative control group was added DMSO (end concentration was 0.5%), while each group afforded three repetitive holes. After cultivation for another 72 h in the cell incubator, a solution containing 5 mg/ml MTT (20 μL) was added into each well and the 96-well plate was placed at 37° C. for 3 h. To each well was added 150 μL DMSO, after oscillation in a shaking table for 5 min, the optical density (OD) values at 492 nm/620 nm were measured. IC50 values were calculated by Prism Graphpad statistical software.

Usually inhibition stands for the change of the read-out against control, counted positive when it falls. Usually IC50 stands for the concentration at which inhibition is half-maximal.

Turning to `CC(C)C[C@H](NC(=O)[C@H](Cc1ccccc1)NC(=O)Nc1cnccn1)B(O)O` [Example 17, N-L-phenylalanyl-L-leucine borate-N′-(pyrazin-2-ylamine)-urea], the figures for the inhibition at 0.2 µM in test [1], in test [2] and in test [3] were -3.77%, 3.75% and 10.5%, respectively. For the same molecule, the inhibition at 2 µM came to 10.5% in test [1], 8.57% in test [2] and 87.3% in test [3]. Further, the figures for the inhibition at 20 µM in test [1], in test [2] and in test [3] were 57.3%, 94.5% and 95.8%, respectively. Also, the inhibition at 0.1 µM turned out to be 8.29% with MCF-7, breast cancer; 7.89% in the test on BGC-823, liver cancer; 5.46% in the test with A549, human lung cancer; 12.1% in test [4]. For the same molecule, the inhibition at 1 µM with MCF-7, breast cancer amounted to 26.2%; in the test on BGC-823, liver cancer it was 27.1%; in the test with A549, human lung cancer, 40.9%; in test [4], 34.6%. Besides, the inhibition at 10 µM with MCF-7, breast cancer amounted to 37.6%; with BGC-823, liver cancer it was 52.7%; in the test with A549, human lung cancer, 66%; in test [4], 51.5%.
On to `CC(C)C[C@H](NC(=O)CNC(=O)Nc1cccc(OCc2ccccc2)c1)B(O)O` [Example 21, N-glycyl-L-leucine borate-N′-(3-benzyloxy-phenylamine)-urea], for which the inhibition at 0.2 µM in test [1] came out at 0.355%; in test [2] it was 8.58%; in test [3], 47.3%. The inhibition at 2 µM in test [1] is 29.3%; in test [2], 62.5%; in test [3] it was 90.9%. In addition, the inhibition at 20 µM in test [1] worked out at 62%; in test [2] it was 96.9%; in test [3], 95.6%. Moreover, the inhibition at 0.1 µM in the test with MCF-7, breast cancer turned out to be 5.41%; in the test with BGC-823, liver cancer, 0.38%; with A549, human lung cancer it was 7.42%; in test [4], 9.87%. The inhibition at 1 µM in the test with MCF-7, breast cancer came out at 9.64%; in the test on BGC-823, liver cancer, 2.21%; in the test on A549, human lung cancer, 25.2%; in test [4] it was 12.9%. Further, the inhibition at 10 µM in the test on MCF-7, breast cancer is 24.2%; in the test with BGC-823, liver cancer, 23.1%; with A549, human lung cancer, 41.4%; in test [4], 29.9%.
For the molecule `CC(C)C[C@H](NC(=O)CNC(=O)Nc1cc(Cl)ccc1Cl)B(O)O` [Example 22, N-glycyl-L-leucine borate-N′-(2,5-dichloro-phenylamine)-urea], the inhibition at 0.2 µM in test [1] was -3.95%; in test [2], 10.1%; in test [3], 62%. Also, the inhibition at 2 µM in test [1] was determined as 28.3%; in test [2], 7.17%; in test [3], 89.7%. Besides, the inhibition at 20 µM amounted to 53.1% in test [1], 5.29% in test [2] and 93.3% in test [3]. Further, the inhibition at 0.1 µM in the test with MCF-7, breast cancer was found to be 7.17%; in the test with BGC-823, liver cancer, 2.04%; in the test with A549, human lung cancer, 1.88%; in test [4], 8.66%. Further, the inhibition at 1 µM in the test with MCF-7, breast cancer was determined as 12.7%; with BGC-823, liver cancer, 9.01%; in the test with A549, human lung cancer, 28.3%; in test [4], 19.7%. Further, the inhibition at 10 µM in the test with MCF-7, breast cancer amounted to 42.2%; in the test with BGC-823, liver cancer it was 44.5%; in the test with A549, human lung cancer, 65.6%; in test [4] it was 43.4%.
As for `CC(C)C[C@H](NC(=O)[C@H](Cc1ccccc1)NC(=O)[C@H](Cc1ccccc1)NC(=O)Nc1cccc(OCc2ccccc2)c1)B(O)O` [Example 23, N-L-phenylalanyl-L-phenylalanyl-L-leucine borate-N′-(3-benzyloxy-phenylamine)-urea], the values for the inhibition at 0.2 µM in test [1], in test [2] and in test [3] were -0.748%, -13.7% and 49.5%, respectively. Also, the inhibition at 2 µM was 47.2% in test [1], -20.5% in test [2] and 91% in test [3]. The inhibition at 20 µM was 90.5% in test [1], -20.3% in test [2] and 94.2% in test [3]. Further, the inhibition at 0.1 µM amounted to 23.7% in the test on MCF-7, breast cancer; 43.2% in the test with BGC-823, liver cancer; 32.7% in the test with A549, human lung cancer; 17.4% in test [4]. Further, the inhibition at 1 µM in the test on MCF-7, breast cancer stood at 56%; in the test with BGC-823, liver cancer, 42.7%; with A549, human lung cancer it was 68.8%; in test [4] it was 42.5%. The inhibition at 10 µM came out at 73% in the test with MCF-7, breast cancer; 81.6% with BGC-823, liver cancer; 81.3% with A549, human lung cancer; 75.7% in test [4].
On to `CC(C)C[C@H](NC(=O)[C@H](Cc1ccccc1)NC(=O)N[C@@H](Cc1ccccc1)C(=O)Nc1cnccn1)B(O)O` [Example 24, N-L-phenylalanyl-L-leucine borate-N′-(pyrazin-2-ylcarbamoyl)-L-phenylalanine-urea], for which the inhibition at 0.2 µM in test [1] is -0.926%; in test [2], -21.8%; in test [3], 84.6%. The inhibition at 2 µM was 43.5% in test [1], -24.7% in test [2] and 95.7% in test [3]. The inhibition at 20 µM in test [1] is 90.2%; in test [2] it was -24.2%; in test [3] it was 97.4%. Also, the inhibition at 0.1 µM in the test with MCF-7, breast cancer amounted to 19.7%; in the test with BGC-823, liver cancer, 36.3%; in the test with A549, human lung cancer, 29.5%; in test [4], 24.7%. Further, the inhibition at 1 µM in the test on MCF-7, breast cancer is 33.3%; in the test on BGC-823, liver cancer it was 45.6%; in the test on A549, human lung cancer it was 61.5%; in test [4] it was 45.3%. Also, the inhibition at 10 µM stood at 45.1% in the test with MCF-7, breast cancer; 51.1% in the test with BGC-823, liver cancer; 70.2% in the test on A549, human lung cancer; 48.6% in test [4].
As for `CC(C)C[C@H](NC(=O)[C@H](Cc1ccccc1)NC(=O)N1CCCc2ccccc21)B(O)O` [Example 38, N-L-phenylalanyl-L-leucine borate-N′-1,2,3,4-tetrahydroquinoline-urea], the IC50 in test [5] amounted to 0.137 ± 0.011 µM.
On the same count and under the same terms, with `CC(C)C[C@H](NC(=O)[C@H](Cc1ccccc1)NC(=O)N1CCc2ccccc2C1C)B(O)O` (stereo partly drawn) [Example 39, N-L-phenylalanyl-L-leucine borate-N′-1-methyl-1,2,3,4-tetrahydroisoquinoline-urea] the figure was 0.139 ± 0.004 µM; with `CC(C)C[C@H](NC(=O)[C@H](CC(C)C)NC(=O)N1CCc2ccccc2C1)B(O)O` [Example 40, N-L-leucyl-L-leucine borate-N′-1,2,3,4-tetrahydroisoquinoline-urea], 0.163 ± 0.008 µM.
With `CC(C)C[C@H](NC(=O)[C@H](C)NC(=O)N1CCc2ccccc2C1)B(O)O` [Example 41, N-L-alanyl-L-leucine borate-N′-1,2,3,4-tetrahydroisoquinoline-urea], the IC50 in test [5] was found to be 0.134 ± 0.003 µM.
The same measure, in the same setting: the result for `CC(C)C[C@H](NC(=O)[C@@H](NC(=O)N1CCc2ccccc2C1)C(C)C)B(O)O` [Example 42, N-L-valyl-L-leucine borate-N′-1,2,3,4-tetrahydroisoquinoline-urea] reads 0.143 ± 0.004 µM.
